Measurements taken from article PMC3901259, “Characterisation of the Metabolites of 1,8-Cineole Transferred into Human Milk: Concentrations and Ratio of Enantiomers” (Metabolites, 2013).

What was measured:
[1] = Quantification of 1,8-cineole metabolites in human milk (SAFE, GC-MS, internal standard and matrix calibration) after oral intake of 100 mg 1,8-cineole; format: in vivo; conditions: for Absolute concentration in human milk: single determination
From the text: Human milk samples were provided voluntarily by breastfeeding mothers after intake of the non-prescription pharmaceutical Soledum® (Klosterfrau Healthcare Group, Cologne, Germany). Before the beginning of the study, the participants were informed verbally, as well as in written form, about the study procedure and purpose and they were told that withdrawing from the study was possible at any time without giving any reason. All volunteers gave written consent to the analysis of their milk samples and anonymous publication of the resulting data. The Ethical Committee of the Medical Faculty, University Erlangen-Nuremberg, approved the experimental procedures. Each participant was handed a copy of the Soldeum® package instructions and was advised to read it before capsule intake. They were also advised to withdraw from the study if any negative reactions such as medication allergies or interactions with other drugs they were taking were to be expected. Additionally, the volunteers were informed verbally about potential effects of the pharmaceutical preparation on breastfeeding, i.e. the risk of an altered milk flavour and rejection of the milk by the nursling. Accordingly, if this would happen, the mothers were recommended to feed their babies with stored human milk or formula milk products.
The milk donors were between the ages of 29 and 40 years (mean 34 years). During their participation in the study, their breast milk production had to be normal and in excess of their infants' needs, with no breast infections and no overall medical complaints present. Five participants were primiparous, three were multiparous and the breast milk samples were from 19 weeks to 19 months postpartum. For sampling, either electrical or mechanical breast pumps or manual expression techniques were applied, resulting in sample volumes between 10 and 100 mL. The samples were immediately subjected to sample preparation after a maximum storage time of five hours at 7 °C or were stored in a freezer at −20 °C for up to five days.
The participating volunteers were asked to ingest one Soledum® capsule, containing 100 mg 1,8-cineole, and to wait until they themselves or another person began to notice the eucalyptus-like odour on their breath. […] The donors were instructed to keep notes on the dates of capsule intake, first eucalyptus-like odour on their breath and exact sampling time. Unfortunately it was difficult for some mothers to detect the smell on their breath so they expressed the samples after some time without having noticed the smell, or reported having been unsure about the smell. […] Some of the donors repeated the whole experiment and some expressed more than one sample after the capsule intake, resulting in 14 samples in total, from 8 different mothers.
Extracts containing the volatile fraction of the human milk samples were prepared by Solvent Assisted Flavour Evaporation (SAFE) after addition of deuterated 1,8-cineole as internal standard (solution in dichloromethane), followed by 10 min of stirring, then another addition of dichloromethane (50% v/v), and 30 min of stirring. The resulting stable phase was distilled in the SAFE-apparatus at 50 °C and approximately 1x10^−4 mbar. The volatile fraction of the samples was frozen with liquid nitrogen. After thawing, it consisted of two phases, formed by the dichloromethane and by the water out of the milk. The water phase was extracted three times with dichloromethane, and the solvent phases were combined and dried over anhydrous Na2SO4. Finally the sample extracts were concentrated by microdistillation according to Bemelmans at 50 °C to a total volume of 50 to 200 μL.
For GC-MS analyses, an Agilent MSD quadrupole system (GC 7890A with MSD 5975C, Agilent Technologies, Waldbronn, Germany) coupled with a CIS 4C (cooled injection system) and an MPS 2 auto-sampler (Gerstel GmbH & Co. KG, Duisburg, Germany) were used. […]

[2] = set-up: method as in PMID 20425757; conditions: one volunteer, sage tea, overall intake 1.02 mg 1,8-cineole; cited from earlier work
[3] = Determination of the ratios of enantiomers of chiral metabolites in human milk on chiral GC capillaries; format: in vivo
From the text: The separation of the chiral metabolites of 1,8-cineole was successfully achieved using different β- or γ-cyclodextrin-based stationary phases (Rt-bDEXsa, Rt-bDEXse, Rt-bDEXsm and Rt-yDEXsa) for gas chromatographic analysis. Table S1, in the supplementary material, lists the usable separation phases and the respective retention indices (determined according to van den Dool and Kratz) for each pair of enantiomers. It was therefore decided to use the following capillaries for the analysis of the human milk samples: Rt-bDEXsm for separation of 2,3-dehydro-, α2,3-epoxy-, 2-oxo-, 3-oxo- and 9-hydroxy-1,8-cineole, and Rt-yDEXsa for separation of α2-hydroxy-, α3-hydroxy- and β2-hydroxy-1,8-cineole, under the GC conditions described in the experimental section.
For GC-MS analyses, an Agilent MSD quadrupole system (GC 7890A with MSD 5975C, Agilent Technologies, Waldbronn, Germany) coupled with a CIS 4C (cooled injection system) and an MPS 2 auto-sampler (Gerstel GmbH & Co. KG, Duisburg, Germany) were used. Data collection and analysis were performed with the MSD ChemStation E.02.00.493 (Agilent Technologies, Inc.) software. Quantification experiments were carried out on DB-FFAP and DB-5 capillaries (30 m length, 0.25 mm inner diameter, 0.25 µm film thickness, Agilent J&W GC Columns, USA), and for monitoring of the ratio of enantiomers the chiral capillaries Rt-bDEXsa, Rt-bDEXse, Rt-bDEXsm and Rt-yDEXsa (30 m length, 0.32 mm inner diameter, 0.25 µm film thickness, Restek GmbH, Bad Homburg, Germany) were utilised. Pre-columns of uncoated, deactivated fused silica (0.53 mm inner diameter, 0.5 to 3.5 m length) were used to ensure that no potentially present low-volatile residues could contaminate the analytical capillaries. The temperature programme of the column oven was as follows: 40 °C for 2 min, 4 °C/min up to 170 °C, 40 °C/min up to 230 °C (Rt-DEX capillaries), 240 °C (DB-FFAP) and 250 °C (DB-5), respectively, and hold time at end temperature of 5 to 10 min. As carrier gas, helium was used at a flow rate of 1.3 mL/min (velocity 41.1 cm/s). Injection of 1 or 2 µL was performed by the auto-sampler.
For the separation of the pairs of enantiomers of the chiral metabolites of 1,8-cineole, four different capillaries (Rt-bDEXsa, Rt-bDEXse, Rt-bDEXsm, and Rt-yDEXsa) were evaluated for optimisation of the peak-to-peak resolution of the enantiomers by injecting a mixture of all the metabolites in a dichloromethane solution and by varying the heating rate. Besides the separation of each pair of enantiomers from each other, it was also important to confirm that no other metabolite coeluted with any one of the enantiomers, because the milk samples would most probably contain all metabolites. Moreover, the separation conditions for the mixture of reference substances were also tested on some human milk sample extracts and modified accordingly, where necessary, to avoid coelution with interfering matrix compounds.
For calculation of the ratio of enantiomers (that is, the relative abundance of each enantiomer to the not separated mixture of enantiomers), the peak area of each enantiomer was divided by the sum of the peak areas of both enantiomers and multiplied by 100. With the known concentrations of the chiral metabolites in each milk sample, the absolute concentration of each single enantiomer was also calculated by multiplying the concentration with the respective percentage.

[4] = sample A-1b (odour yes), oral 100 mg 1,8-cineole, values given with (<x) are approximations
[5] = sample B-1 (odour yes), oral 100 mg 1,8-cineole, values given with (<x) are approximations
[6] = sample B-2b (odour yes), oral 100 mg 1,8-cineole, values given with (<x) are approximations
[7] = sample B-2c (no odour), oral 100 mg 1,8-cineole
[8] = sample C (no odour; very weak odour not caused by 1,8-cineole), oral 100 mg 1,8-cineole, values given with (<x) are approximations
[9] = sample D-1 (no odour), oral 100 mg 1,8-cineole, values given with (<x) are approximations
[10] = sample D-2 (odour yes), oral 100 mg 1,8-cineole, values given with (<x) are approximations
[11] = sample E-2 (odour yes), oral 100 mg 1,8-cineole, values given with (<x) are approximations
[12] = sample G (odour yes), oral 100 mg 1,8-cineole, values given with (<x) are approximations
[13] = sample H (odour yes), oral 100 mg 1,8-cineole, values given with (<x) are approximations
[14] = sample F (no odour), parent ingested two capsules, values given with (<x) are approximations

Structure (SMILES)	Absolute concentration in human milk [1, 4] [µg/kg]	Absolute concentration in human milk [1, 5] [µg/kg]	Estimated maximum level in human milk (concentration calculated with the last calibration point, in parentheses) ([1]; sample B-2b (odour yes)) [µg/kg]	Absolute concentration in human milk [1, 6] [µg/kg]	Absolute concentration in human milk [1, 7] [µg/kg]	Estimated maximum level in human milk (concentration calculated with the last calibration point, in parentheses) ([1]; sample C (no odour)) [µg/kg]	Absolute concentration in human milk [1, 8] [µg/kg]	Estimated maximum level in human milk (concentration calculated with the last calibration point, in parentheses) ([1]; sample D-1 (no odour)) [µg/kg]	Absolute concentration in human milk [1, 9] [µg/kg]	Estimated maximum level in human milk (concentration calculated with the last calibration point, in parentheses) ([1]; sample D-2 (odour yes)) [µg/kg]	Absolute concentration in human milk [1, 10] [µg/kg]	Absolute concentration in human milk [1, 11] [µg/kg]	Estimated maximum level in human milk (concentration calculated with the last calibration point, in parentheses) ([1]; sample G (odour yes)) [µg/kg]	Absolute concentration in human milk [1, 12] [µg/kg]	Absolute concentration in human milk [1, 13] [µg/kg]	Absolute concentration in human milk [1, 14] [µg/kg]	Concentration in plasma [2]	also measured
CC12CCC(C(O)C1)C(C)(C)O2 (stereo not drawn) [a3-hydroxy-1,8-cineole, α3-Hydroxy-1,8-cineole]	0.77	1.06	< 2.07	0.54	0.05	< 0.96	0.05	< 1.06	0.03	< 1.92	0.41	0.96	< 3.51	0.72	1.53	–	below the limit of quantitation	Estimated maximum level in human milk (concentration calculated with the last calibration point, in parentheses) ([1]; sample A-1b (odour yes)): < 1.14 µg/kg; Estimated maximum level in human milk (concentration calculated with the last calibration point, in parentheses) ([1]; sample B-1 (odour yes)): < 1.65 µg/kg; Estimated maximum level in human milk (concentration calculated with the last calibration point, in parentheses) ([1]; sample E-2 (odour yes)): < 1.78 µg/kg; Estimated maximum level in human milk (concentration calculated with the last calibration point, in parentheses) ([1]; sample H (odour yes)): < 1.96 µg/kg
CC12CCC(O)(CC1)C(C)(C)O2 [4-hydroxy-1,8-cineole]	5.96	6.35	–	5.62	2.32	–	–	–	2.24	–	7.13	8.92	–	3.39	5.66	3.62	–	–

Second part, led by results:

Absolute concentration in human milk [1, 4] [µg/kg]	Absolute concentration in human milk [1, 5] [µg/kg]	Estimated maximum level in human milk (concentration calculated with the last calibration point, in parentheses) ([1]; sample B-2b (odour yes)) [µg/kg]	Absolute concentration in human milk [1, 6] [µg/kg]	Absolute concentration in human milk [1, 7] [µg/kg]	Estimated maximum level in human milk (concentration calculated with the last calibration point, in parentheses) ([1]; sample C (no odour)) [µg/kg]	Absolute concentration in human milk [1, 8] [µg/kg]	Estimated maximum level in human milk (concentration calculated with the last calibration point, in parentheses) ([1]; sample D-1 (no odour)) [µg/kg]	Absolute concentration in human milk [1, 9] [µg/kg]	Estimated maximum level in human milk (concentration calculated with the last calibration point, in parentheses) ([1]; sample D-2 (odour yes)) [µg/kg]	Absolute concentration in human milk [1, 10] [µg/kg]	Absolute concentration in human milk [1, 11] [µg/kg]	Estimated maximum level in human milk (concentration calculated with the last calibration point, in parentheses) ([1]; sample G (odour yes)) [µg/kg]	Absolute concentration in human milk [1, 12] [µg/kg]	Absolute concentration in human milk [1, 13] [µg/kg]	Absolute concentration in human milk [1, 14] [µg/kg]	Structure (SMILES)	Concentration in plasma [2]	also measured
6.00	6.72	–	5.82	1.71	< 0.96	0.33	–	1.42	–	7.35	11.44	–	3.80	7.90	–	CC1(C)OC2(C)CCC1CC2O (stereo not drawn) [b2-hydroxy-1,8-cineole, β2-hydroxy-1,8-cineole]	–	–
0.56	1.14	–	4.42	0.18	–	–	–	–	–	0.62	5.19	< 1.06	0.84	1.87	–	CC1(C)OC2(CO)CCC1CC2 [7-hydroxy-1,8-cineole]	below the limit of quantitation	Absolute concentration in human milk ([1]; sample B-2a (no odour), oral 100 mg 1,8-cineole): 0.21 µg/kg
1.80	3.32	< 2.37	1.47	0.68	< 1.10	0.14	< 1.22	0.77	< 2.20	2.12	2.41	< 4.02	3.38	3.85	0.07	CC12CCC(C(=O)C1)C(C)(C)O2 (stereo not shown) [3-oxo-1,8-cineole]	–	Enantiomeric ratio in human milk [3]: nearly enantiomerically pure; Percentage E1, range as described for boxplot ([3]; human milk samples, Figure 5): under 10%; Estimated maximum level in human milk (concentration calculated with the last calibration point, in parentheses) ([1]; sample A-1a (no odour)): < 1.57 µg/kg; Absolute concentration in human milk ([1]; sample A-1a (no odour), oral 100 mg 1,8-cineole, values given with (<x) lie beyond calibration range, approximation): 0.01 µg/kg; Estimated maximum level in human milk (concentration calculated with the last calibration point, in parentheses) ([1]; sample F (no odour), two capsules): < 3.00 µg/kg
